This passage reports TGI results from PubChem BioAssay (NCI).

Test systems include SNB-19 CNS; SNB-78 CNS; RPMI-8226 leukemia; NCI-H460 lung; HCC-2998 colon; SF-539 CNS; SF-268 CNS; HOP-18 NSCLC; SF-295 CNS; OVCAR-4 ovarian; U251 CNS; TK-10 renal; DLD-1 colon; UO-31 renal; NCI-H522 lung; NCI/ADR-RES ovarian; A498 renal; HT29 colon; MCF7 breast; RXF-631 renal.
Experiment in all cases: inhibition of tumour cell growth, NCI panel, 48 h

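A five-concentration, 48-hour dose response in 96-well plates underlies each endpoint, interpolated linearly between surrounding concentrations. TGI: total growth inhibition.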

Regarding `Cn1c(=O)[nH]c2c(c1=O)C(=O)CN2`, the TGI in the assay on SNB-19 CNS, with SNB-78 CNS, in the assay on RPMI-8226 leukemia, with NCI-H460 lung, in the assay with HCC-2998 colon and with SF-539 CNS was greater than 100 µM throughout. Also, the TGI in the assay with SF-268 CNS, in the assay with HOP-18 NSCLC, with SF-295 CNS, in the assay with OVCAR-4 ovarian, with U251 CNS and with TK-10 renal was greater than 100 µM throughout. Also, the TGI in the assay on DLD-1 colon and in the assay on UO-31 renal was greater than 100 µM each time.
As for `S=C1Cc2c(-c3ccccc3)cc(-c3ccc(Cl)cc3)nc2-c2ccccc2N1`, the TGI was greater than 24.2 µM with NCI-H522 lung; greater than 27.3 µM in the assay on NCI/ADR-RES ovarian; 4.14 µM in the assay on SNB-19 CNS; greater than 100 µM in the assay on RPMI-8226 leukemia; greater than 100 µM in the assay with NCI-H460 lung; 4.27 µM in the assay with A498 renal. The TGI with HCC-2998 colon is greater than 36.8 µM; with SF-539 CNS it was 10.8 µM; in the assay on SF-268 CNS, 6.8 µM; in the assay with HT29 colon, 15.2 µM; in the assay on SF-295 CNS it was 18.9 µM; in the assay on OVCAR-4 ovarian, 1.71 µM. Moreover, the TGI was greater than 72.6 µM with MCF7 breast, 2.34 µM in the assay on U251 CNS, 8.41 µM in the assay with TK-10 renal and greater than 24 µM in the assay on UO-31 renal.
With `COc1ccc(N[C@@H]2c3cc4c(cc3C(c3cc(OC)c(O)c(OC)c3)[C@H]3C(=O)OCC32)OCO4)cc1OC` (some centres not stated), the TGI is greater than 25.3 µM with NCI-H522 lung; greater than 100 µM with NCI/ADR-RES ovarian; greater than 79.2 µM with SNB-19 CNS; greater than 31.7 µM in the assay on RPMI-8226 leukemia; greater than 100 µM in the assay on A498 renal; greater than 56.7 µM with SF-268 CNS. For the same compound, the TGI in the assay on HOP-18 NSCLC is greater than 64.2 µM; in the assay on HT29 colon it was greater than 20.7 µM; with OVCAR-4 ovarian it was greater than 100 µM; in the assay on MCF7 breast, greater than 100 µM; in the assay on U251 CNS it was greater than 67.5 µM; in the assay with DLD-1 colon it was greater than 25.7 µM. In the assay with UO-31 renal, the TGI is greater than 100 µM.
Consider `CN(C(=O)c1ccccc1)c1ccc2c(c1)C(=O)c1ccccc1C2=O`, for which the TGI with NCI-H522 lung, in the assay with RPMI-8226 leukemia, in the assay with NCI-H460 lung, in the assay with HCC-2998 colon, with SF-268 CNS and in the assay on HT29 colon was greater than 100 µM each time. Besides, the TGI in the assay with SF-295 CNS, with OVCAR-4 ovarian, with U251 CNS, with TK-10 renal and in the assay with UO-31 renal was greater than 100 µM in each case.
On to `O=S(=O)(CF)OCCCCOS(=O)(=O)CF`, for which the TGI in the assay on NCI-H522 lung, in the assay on SNB-19 CNS, in the assay with SNB-78 CNS, with RPMI-8226 leukemia, with NCI-H460 lung and with A498 renal was greater than 100 µM in each case. Besides, the TGI with SF-539 CNS, with SF-268 CNS, with HOP-18 NSCLC, in the assay with HT29 colon, in the assay with SF-295 CNS and in the assay with RXF-631 renal was greater than 100 µM in each case. The TGI in the assay on U251 CNS, in the assay on TK-10 renal and in the assay on UO-31 renal was greater than 100 µM each time.
Regarding `COC(=O)C(=O)C(C(C)=O)C(=O)C(=O)Nc1ccc(C)cc1C` (configuration not stated), the TGI in the assay with NCI-H522 lung, in the assay on SNB-19 CNS, in the assay on RPMI-8226 leukemia, in the assay with NCI-H460 lung, in the assay with A498 renal and with HCC-2998 colon was greater than 100 µM throughout. Further, the TGI in the assay with SF-539 CNS, with SF-268 CNS, in the assay with HT29 colon, in the assay on SF-295 CNS, with OVCAR-4 ovarian and with U251 CNS was greater than 100 µM in each case. The TGI with TK-10 renal, in the assay on DLD-1 colon and with UO-31 renal was greater than 100 µM each time.
Turning to `O=C(NCCN(CCNC(=O)c1cccc(=O)n1O)CCNC(=O)c1cccc(=O)n1O)c1cccc(=O)n1O`, the TGI in the assay on NCI-H522 lung, with NCI/ADR-RES ovarian, in the assay on SNB-19 CNS, in the assay on RPMI-8226 leukemia, in the assay with NCI-H460 lung and in the assay on A498 renal was greater than 100 µM throughout. Moreover, the TGI in the assay with HCC-2998 colon, in the assay on SF-539 CNS, in the assay on SF-268 CNS, in the assay on HT29 colon, in the assay on SF-295 CNS and in the assay on OVCAR-4 ovarian was greater than 100 µM in each case. For the same compound, the TGI in the assay with MCF7 breast, in the assay on U251 CNS, in the assay on TK-10 renal and in the assay on UO-31 renal was greater than 100 µM each time.
As to `CCCCCC(/C=C/c1ncccc1OCCCCCC(=O)O)=N\NC1=NCCN1`, the TGI with NCI-H522 lung, with SNB-19 CNS, in the assay with RPMI-8226 leukemia, in the assay on NCI-H460 lung, in the assay with HCC-2998 colon and in the assay with SF-539 CNS was greater than 100 µM in each case. The TGI with SF-268 CNS, in the assay on HT29 colon, in the assay on SF-295 CNS, in the assay on OVCAR-4 ovarian, with TK-10 renal and in the assay with UO-31 renal was greater than 100 µM throughout.
For `N#CCCN(CCC#N)c1ccc(/C=C(/NC(=O)Nc2ccccc2Cl)NC(=O)c2cc([N+](=O)[O-])ccc2Cl)cc1`, the TGI in the assay with NCI-H522 lung, in the assay with SNB-19 CNS, in the assay on SNB-78 CNS, in the assay on RPMI-8226 leukemia, with HCC-2998 colon and in the assay with SF-539 CNS was greater than 100 µM each time. Also, the TGI with SF-268 CNS, in the assay with HOP-18 NSCLC, in the assay with SF-295 CNS, in the assay on OVCAR-4 ovarian, in the assay with RXF-631 renal and with U251 CNS was greater than 100 µM each time. The TGI in the assay with TK-10 renal, in the assay with DLD-1 colon and in the assay with UO-31 renal was greater than 100 µM in each case.
